Source: patent US10668048B2, “Compounds for inhibiting bacterial growth via phosphatidylglycerol binding” (Wichita State University, priority 2016, dated 2020)

Experiments:
[1] = system: Red blood cells (RBCs); assay: Erythrocyte toxicity, hemoglobin release at 414 nm; type: cell-based; details: 2.5-5 μM, 30 minutes, 37° C.
Experimental: Toxicity of liptin 3e to eukaryotic erythrocytes was assessed by UV/Visible spectroscopy, whereby the change in absorbance at 414 nm was used to quantify the release of hemoglobin, where 100% hemolysis was measured by adding 1% Triton X-100 detergent. Red blood cells (RBCs) were suspended in a buffer of 25 mM TRIS and 1.5 mM dihydrogenphosphate anion (serum inorganic phosphate levels). To the RBCs samples was added differing concentration of 3e—2.5 μM, 5 μM, 7.5 μM, and 10 μM, as well as control containing no 3e, and after 30 minutes incubation and gentle shaking at 37° C. spectra were obtained.

[2] = system: E. coli BL 21 (Tuner pLysS); assay: Tetracycline-induced YqhD expression, gel electrophoresis; type: cell-based; details: 10 μM
[3] = system: Staphylococcus aureus str. ATCC 29213; assay: Long term growth study in brain-heart infusion medium; type: cell-based
Experimental: (§1) Staphylococcus aureus str. ATCC 29213 was grown as shake-tubes in brain-heart infusion medium supplemented with liptin and culture densities were measured by turbidity (FIG. 13A). At 0.5 μM 3e, there was an 8-h lag phase before culture density began to increase, which was not seen without addition of liptin 3e. Further, the growth rate was substantially lower over the next 12 h as culture density approached that of controls. Lag phases were on the order of days to weeks at liptin concentrations of ≥1.5 μM, and slow recovery followed. […] Growth of Escherichia coli str. […] Our novel antibacterial compounds attack plasma membranes through a less specific mode of action, which may avoid the pitfalls that lead to antibiotic resistance.

[4] = system: Escherichia coli str. MC4100; assay: as above; type: cell-based
Experimental: as §1

[5] = Carboxyfluorescein efflux from pure PG vesicles; type: biochemical; details: room temperature, after three hours
Experimental: Liptin/bilayer interactions were evaluated using conventional efflux measurements. These experiments make use of the self-quenching fluorescence of carboxyfluorescein. At relatively high concentrations (ca. 50 mM) the fluorescence from carboxyfluorescein is diminished by approximately 70% due to intermolecular interactions.
To perform efflux experiments vesicles were prepared by rehydrating a film of pure DPPG with a 50 mM solution of carboxyfluorescein in buffer. The solution was then extruded through a polycarbonate membrane with 200 nm pore size. […] Under these conditions, as the dye leaves the vesicles by efflux, fluorescence intensity increases. Monitoring the fluorescence intensity over time provides a measure of the rate at which dye crosses the membrane and an indication of the “leakiness” of the vesicle bilayer. Efflux can be expressed as % Efflux by the following expression:
[formula] where F0 is the fluorescence intensity corresponding to the initial sample when efflux first begins and F∞ is the intensity after efflux is complete and is determined by rupturing the vesicles by the addition of a small amount of concentrated detergent. F(t) is the fluorescence intensity measured as the efflux occurs. […]

[6] = system: E. coli (MC4100); assay: Overnight growth study in LB broth; type: cell-based
Source text: This spectrum is identical to the spectrum of just liptin in water illustrating that the liptin is not degraded or metabolized when exposed to bacteria over long periods of time.

[7] = system: HepG2 human hepatocyte cells; assay: Hepatocyte toxicity, MTT assay; type: cell-based; details: 9-12 hours; down to 0.5 μM
Experimental: Toxicity of compounds to eukaryotic cells was assessed by MTT assay of cultured HepG2 human hepatocyte cells grown in media supplemented with 10% fetal bovine serum and antibiotics.
Human liver HepG2 cells were cultured in 100 mm^2 Falcon tissue culture plates in DMEM with high glucose (4500 mg/L) supplemented with 10% fetal bovine serum, 50 μg/ml streptomycin and 50 IU/ml penicillin at 37° C. and 5% CO2. Cells were cultured to about 70-80% confluence, and then seeded into 96 well plates depending and grown to 70-80% confluence for 2-3 days unless otherwise stated.
Cell viability was determined by MTT [3-(4,5-dimethylthiazol-2-yl)-2,5-diphenyltetrazolium bromide)] assay (Denizot & Lang 1986). Briefly, cells were seeded on 96-well plates and allowed to grow until 70-80% confluence. Prior to the experiment, medium was replaced with KRB containing a desired concentration of the toxin or other reagents and incubated for 9 h to 12 h depending on the experiment at 37° C. […] The resulting formazan was solubilized by the addition of 210 μL detergent solution (50% DMF, 20% SDS) followed by incubation for 4 h at 37° C. and was quantified based on the difference in the absorbance at 570 nm and 650 nm (Mosmann 1983). Results are expressed as viability of toxin treated cells with respect to control cells which were treated under the same conditions except in the absence of the toxin. […]

[8] = system: E. coli (MC4100); assay: Serial passage resistance experiment; type: cell-based; details: 0.5 MIC, LB, 37° C., 80-100 generations
Source text: (§2) Triplicate serial passage experiments were undertaken with E. coli (MC4100), S. aureus (33186) and E. feucalis (29213).

[9] = system: S. aureus (33186); assay: Serial passage resistance experiment; type: cell-based; details: 0.5 MIC, LB, 37° C., 80-100 generations
Source text: as §2

[10] = system: E. feucalis (29213); assay: Serial passage resistance experiment; type: cell-based; details: 0.5 MIC, LB, 37° C., 80-100 generations
Source text: as §2

In the case of NCC(=O)Nc1ccccc1-c1c2nc(c(-c3ccccc3NC(=O)CN)c3ccc([nH]3)c(-c3ccccc3NC(=O)CN)c3nc(c(-c4ccccc4NC(=O)CN)c4ccc1[nH]4)C=C3)C=C2.O=C(O)C(F)(F)F.O=C(O)C(F)(F)F.O=C(O)C(F)(F)F.O=C(O)C(F)(F)F [Liptin 3e], the “damage to red blood cells (hemolysis)” value [1] is reported as 4.5-11%, the protein synthesis [2] is reported as “most protein synthesis was effectively disrupted” and the lag phase ([3]; 0.5 μM) is reported as 8 h. The lag phases ([3]; ≥1.5 μM) was “days to weeks”, the lag phases ([4]; 1.5 μM) was 8 h and the lag phases ([4]; 10 μM) was “greater than 24 h”. For the same compound, the “% Efflux of carboxyfluorescein” value [5] was 5%, the “stability: UV/Visible spectrum of membrane-bound liptin” value ([6]; 12 hours in bacterial culture) was “no change” and the “time until bacterial replication completely stops” value ([6]; one-time addition of 10 μM, growth phase, 37° C., OD=0.2, stopped for 12 hours) was 1 to 2 h. The “toxicity (cell viability, MTT)” value [7] was “lack of toxicity”, the “MIC after 15 serial passages” value [8] was “no different than initial MICs” and the “MIC after 15 serial passages” value [9] was “no different than initial MICs”. For the same compound, the “MIC after 15 serial passages” value [10] was “no different than initial MICs”.
